Legend:
Assay type in all cases: cell-based
mouse PPAR α = molecular target: T1, mouse PPAR α (Mus musculus, UniProt P23204); experiment: PPAR alpha transactivation (GAL4 chimeric receptor luciferase reporter) assay; details: pFR-Luc reporter, HEK293T cells, 20 hours incubation, read-out: Gene Activation Assay: EC50 (<10 μM) PPAR alpha
T1 construct: expressed in transfected cells; host or cells: HEK293T
T1 sequence (P23204 239-466 limits assumed): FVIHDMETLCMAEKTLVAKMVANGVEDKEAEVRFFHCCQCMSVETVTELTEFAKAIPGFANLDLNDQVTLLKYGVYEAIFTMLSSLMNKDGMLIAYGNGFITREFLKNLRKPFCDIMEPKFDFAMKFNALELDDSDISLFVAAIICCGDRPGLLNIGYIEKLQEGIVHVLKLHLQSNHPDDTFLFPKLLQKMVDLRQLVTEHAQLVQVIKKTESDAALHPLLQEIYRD
From the text: (§1) Measurement of PPARγ, δ, and α Transactivation Activity.
(§2) Chimeric receptors were constructed in which the yeast transcription factor GAL4 DNA binding domain was fused to the ligand binding domain of either mouse PPARγ, mouse PPARδ or mouse PPAR α in order to assess the ability of the compounds of the present invention to activate gene expression in a PPAR-dependent manner. The chimeric receptor expression plasmids (GAL4-mPPARγ, GAL4-mPPAR δ and GAL4-PPAR α) and the reporter plasmid containing 5×GAL4 binding site (pFR-Luc, obtained from Stratagene) were transfected into HEK293T cells using the Lipofectamine 2000 reagent (Invitrogen), according to the manufacturers instructions. Six hours after transfection, the culture medium was renewed and the cells were incubated for 20 hours in presence of either 1) DMSO (vehicle), 2) a compound of the invention or 3) a reference compound for comparison. Rosiglitazone (obtained from WDF Pharma) was used as a reference compound for the PPARγassay; GW501516 (prepared as described in Sznaidman et al. Bioorg. Med. Chem. Lett. (2003) 13:1517-1521) was used as a reference compound for the PPAR δ assay and GW7647 (obtained from Sigma) was used as a reference compound for the PPAR α assay. Luciferase activity was measured as a reporter of gene expression. Luciferase activity on the cell lysates using the Steady-Glo reagent was measured according to the manufacturers instructions.

mouse PPARδ = molecular target: T2, mouse PPARδ (Mus musculus, UniProt P35396); experiment: PPAR delta transactivation (GAL4 chimeric receptor luciferase reporter) assay; details: GAL4-mPPAR δ chimeric receptor, pFR-Luc reporter, HEK293T cells, 20 hours incubation; read-out: Gene Activation Assay: EC50 (<10 μM) PPAR delta
T2 construct: expressed in transfected cells; host or cells: HEK293T
T2 sequence (P35396 210-438 limits assumed): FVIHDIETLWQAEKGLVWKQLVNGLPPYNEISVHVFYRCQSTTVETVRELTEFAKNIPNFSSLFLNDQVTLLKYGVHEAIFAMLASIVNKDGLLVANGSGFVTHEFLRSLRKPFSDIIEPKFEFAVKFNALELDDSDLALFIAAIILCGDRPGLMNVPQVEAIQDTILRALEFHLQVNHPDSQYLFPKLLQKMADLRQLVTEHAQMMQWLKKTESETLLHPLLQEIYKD
From the text: as §1, §2

mouse PPARγ = molecular target: T3, mouse PPARγ (Mus musculus, UniProt P37238); experiment: PPAR gamma transactivation (GAL4 chimeric receptor luciferase reporter) assay; details: GAL4-mPPARγ chimeric receptor, pFR-Luc reporter, HEK293T cells, 20 hours incubation; read-out: Gene Activation Assay: EC50 (<10 μM) PPAR gamma
T3 construct: expressed in transfected cells; host or cells: HEK293T
T3 sequence (P37238 238-503 limits assumed): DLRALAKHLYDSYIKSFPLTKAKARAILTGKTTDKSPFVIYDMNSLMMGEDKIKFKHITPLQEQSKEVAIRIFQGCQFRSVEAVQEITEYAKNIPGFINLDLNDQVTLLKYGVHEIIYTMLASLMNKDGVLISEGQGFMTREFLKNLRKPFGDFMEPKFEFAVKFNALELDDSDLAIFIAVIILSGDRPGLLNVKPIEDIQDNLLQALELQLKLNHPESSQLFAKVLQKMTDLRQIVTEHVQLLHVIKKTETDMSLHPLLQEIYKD
From the text: as §1, §2

EC50 (mouse PPAR α) | EC50 (mouse PPARδ) | EC50 (mouse PPARγ) | Structure (SMILES)
< 10 µM | < 10 µM | < 10 µM | Cc1nn(-c2ccc(C(F)(F)F)cc2)nc1COc1ccc2ccn(CC(=O)O)c2c1 [Compound 130, {6-[5-Methyl-2-(4-trifluoromethyl-phenyl)-2H-[1,2,3]triazol-4-ylmethoxy]-indol-1-yl}-acetic acid]
> 10 µM | < 10 µM | > 30 µM | Cc1nn(-c2ccc(C(F)(F)F)cc2)nc1COc1ccc2c(ccn2CC(=O)O)c1 [Compound 20, {5-[5-Methyl-2-(4-trifluoromethyl-phenyl)-2H-[1,2,3]triazol-4-ylmethoxy]-indol-1-yl}-acetic acid]
> 10 µM | < 10 µM | > 10 µM | Cc1nn(-c2ccc(C(F)(F)F)cc2)nc1COc1ccc2c(CC(=O)O)coc2c1 [Compound 160, {6-[5-Methyl-2-(4-trifluoromethyl-phenyl)-2H-[1,2,3]triazol-4-ylmethoxy]-benzofuran-3-yl}-acetic acid]
> 10 µM | < 10 µM | > 30 µM | Cc1nn(-c2ccc(C(F)(F)F)cc2)nc1COc1ccc2c(c1)OCC2CC(=O)O (stereo not drawn) [Compound 700, {6-[5-Methyl-2-(4-trifluoromethyl-phenyl)-2H-[1,2,3]triazol-4-ylmethoxy]-2,3-dihydro-benzofuran-3-yl}-acetic acid]

Source: patent US20060014785A1, “BICYCLIC, SUBSTITUTED TRIAZOLES AS MODULATORS OF PPAR AND METHODS OF THEIR PREPARATION” (Metabolex, Inc., priority 2004, published 2006)
